Entries after “also recorded” stand apart in the source; their conditions may differ. Where two headings read alike, the source gives them in different places.
Legend:
caspase-1 = assay: Caspase 1 activity, Caspase-Glo 1 Inflammasome Assay; assay type: cell-based, human; conditions: 72 h; for Casp-1 activation (concentration): Table 4 summary; for caspase-1 activity compared to control: highest concentration tested
Protocol: Caspase 1 activity was evaluated using the Caspase-Glo® 1 1 Inflammasome Assay kit. The assay was performed according to the manufacturer's instructions. Luminescence was quantified with a Spark microplate reader.
Caspase 1 activity was evaluated using the Caspase-Glo®1 Inflammasome Assay kit. The assay was performed according to the manufacturer's instructions. Luminescence was quantified with a Spark microplate reader.

JEG-Tox cells [1] = assay: Neutral Red cell viability assay on JEG-Tox cells, 72 h; assay type: cell-based, human; conditions: 72 h
Protocol: (§1) The JEG-3 human trophoblast cell line, derived from a human placental carcinoma, was obtained from the American Type Culture Collection (ATCC HTB-36). Cells were cultured in minimum Essential medium, supplemented with 10% fetal bovine serum (FBS), 1% L-glutamine, 0.5% penicillin and streptomycinin, in 75 cm2 polystyrene flasks. Cell cultures were maintained in a cell culture incubator (37° C., saturated humidity, 5% CO2). When the JEG-3 cells reached subconfluency, they were detached using trypsin-EDTA and counted. The cellular suspension was diluted and seeded either in 96-well microplates at a cellular density of 80,000 cells/mL or in 6-well microplates at 120,000 cells/mL, then kept at 37° C. for 24 h. The cells were incubated with EDCs according to example 1.
(§2) Cell viability was evaluated using the Neutral Red assay. The Neutral Red solution at 0.4% (m/v in water) was diluted in cell culture medium to obtain a working concentration of 50 μg/mL. […] The cells were then rinsed with PBS and lysed with a solution of acetic acid-ethanol (ethanol 50.6%, water 48.4% and acetic acid 1%). After homogenization, the fluorescence signal was scanned (λexc=540 nm, λem=600 nm) with a Tecan Spark microplate reader (Mannedorf, Switzerland). The cell viability was calculated compared to the control cells (the fluorescence of the control cells as 100% viability).

[2] = as above; assay type: cell-based, human; conditions: human
Protocol: as §1, §2

P2X7 receptor = biological target: T1, P2X7 receptor (Homo sapiens, UniProt Q99572); assay type: cell-based; conditions: 72 h; for P2X7 receptor activation (in words): JEG-Tox; for P2X7 activation (concentration): Table 4 summary
T1 construct: P2X7 receptor is expressed by human placenta and JEG-Tox; endogenous in cells; host or cells: JEG-3 human trophoblast cell line (ATCC HTB-36) cultured in 2.5% FBS (JEG-Tox)
T1 sequence (Q99572 1-595): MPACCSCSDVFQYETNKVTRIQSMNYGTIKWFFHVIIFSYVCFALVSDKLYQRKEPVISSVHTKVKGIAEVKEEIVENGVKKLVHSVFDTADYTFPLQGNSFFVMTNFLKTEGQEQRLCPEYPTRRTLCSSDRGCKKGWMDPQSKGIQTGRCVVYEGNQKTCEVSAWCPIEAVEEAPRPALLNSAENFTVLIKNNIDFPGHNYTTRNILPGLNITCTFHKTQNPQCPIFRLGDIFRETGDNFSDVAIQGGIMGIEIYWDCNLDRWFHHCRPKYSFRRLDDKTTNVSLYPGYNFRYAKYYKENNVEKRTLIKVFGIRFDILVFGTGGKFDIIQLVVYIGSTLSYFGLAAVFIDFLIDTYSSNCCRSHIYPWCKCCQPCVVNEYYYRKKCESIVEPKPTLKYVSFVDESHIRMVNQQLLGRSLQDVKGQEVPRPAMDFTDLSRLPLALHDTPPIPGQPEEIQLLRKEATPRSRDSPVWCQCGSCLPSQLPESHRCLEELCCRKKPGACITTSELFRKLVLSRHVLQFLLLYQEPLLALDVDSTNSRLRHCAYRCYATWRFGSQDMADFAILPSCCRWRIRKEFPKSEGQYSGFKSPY
Protocol: (§3) P2X7 cell death receptor activation was evaluated using the YO-PRO-1® assay (Rat et al. J Biol Methods. 2017 Jan. 20; 4(1):e64). YO-PRO-1® probe only enters into cells after P2X7 receptor activation-induced pore opening, and binds to DNA, emitting fluorescence. A 1 mM YO-PRO-1 stock solution was diluted at 1/500 in PBS just before use and distributed into the wells of the microplate. After a 10-minute incubation time at room temperature, fluorescence signal was read (λex=491 nm, λem=509 nm) with a Spark cytofluorometer.
as §3, with “al., 2017).” for “al. J Biol Methods. 2017 Jan. 20; 4(1):e64).”, “(λex=485” for “(λex=491”, “λem=531” for “λem=509”

JEG-Tox cells [3] = assay: Chromatin condensation (Hoechst 33342) as a hallmark of apoptosis; assay type: cell-based, human; conditions: 24 h
Protocol: The UV fluorescent probe Hoechst 33342 enters living and apoptotic cells, intercalating into DNA. The fluorescent signal is proportional to chromatin condensation in apoptosis. The cells were incubated with Hoechst 33342 at 10 μg/mL for 30 minutes at room temperature. The fluorescence signal was read (λex=360 nm, λem=460 nm) using a cytofluorometer (Spark).

caspase-9 = assay: Caspase 9 activity, Caspase-Glo 9 Assay; assay type: cell-based, human; conditions: 10 μM
Protocol: Caspase 9 activity was evaluated using the Caspase-Glo® 9 Assay kit. The assay was performed according to the manufacturer's instructions. Luminescence was quantified with a Spark microplate reader.

JEG-3 cells = assay: Neutral red cell viability of JEG-3 cells with SLS or PFOA in 10% or 2.5% FBS; conditions: for living cells: 2.5% FBS
Protocol: The choriocarcinoma-derived JEG-3 cell-line (ATCC® HTB-36™, Manassas, VA, USA), was grown as recommended by ATCC: Minimum Essential Medium Eagle's medium supplemented with 10% fetal bovine serum, 2 mM of glutamine, 50 IU/mL of penicillin and 50 IU/mL of streptomycin. Cells were detached using trypsin, counted, and then seeded at 80,000 cells/mL in 96-well microplates (200 μL by well) and Nunc® Lab-Tek® II Chamber Slide™ system for immunostaining.
Cells were incubated with sodium lauryl sulfate or perfluorooctanoic acid diluted in culture medium supplemented with either 2.5% or 10% FBS. After 24 hours, cell viability was evaluated using the neutral red assay. Neutral Red solution at 0.4% in water was diluted in culture medium with a ratio of 1:79 to give a final concentration of 50 μg/mL. Neutral Red was distributed in the plates for a 3-hour incubation time at 37° C. The cells were then rinsed with PBS to remove any remaining unincorporated dye. The dye was then released from the cells using a lysis solution (1% acetic acid, 50% ethanol and 49% H2O) and the fluorescence was measured (λex=540 nm, λem=600 nm) using Spark microplate fluorometer (Tecan, Mannedorf, Switzerland).

[4] = Table 4 summary, loss of viability >= 30% counted as cytotoxic
[5] = JEG-Tox cells, 50 μM, 72 h, read-out: cell viability

Row | Structure (SMILES) | effect on caspase-1 activity (caspase-1) | Casp-1 activation (concentration) (caspase-1) | cytotoxicity (concentration) (JEG-Tox cells [1]; [4]) | P2X7 receptor activation compared to control (P2X7 receptor; 10 μM) [fold change] | P2X7 receptor activation (in words) (P2X7 receptor) | P2X7 activation (concentration) (P2X7 receptor) [µM] | concentration at which chromatin condensation was initiated (JEG-Tox cells [3]) | further results
1 | CC12CCC(/C(=C/c3ccccc3)C1=O)C2(C)C (stereo not drawn) [3-benzylidene camphor] | no effect | no | 50 µM | 1.50 | triggered P2X7 receptor activation | 1 to 10 | – | viability at 72 h, 50 µM [2, 5]: 70%
2 | Clc1ccc(C(c2ccc(Cl)cc2)C(Cl)(Cl)Cl)cc1 [4,4′DDT] | – | – | – | – | – | – | 2 µg/mL | –
3 | CCC(C)(C)c1ccc(O)cc1 [4-tert-amylphenol] | activated caspase-1 | 50 µM | no | – | triggered P2X7 receptor activation | 0.1 to 50 | – | caspase-1 activity compared to control (caspase-1): 1.5 fold change; concentration up to which no loss of cell viability was observed (JEG-Tox cells [1]): up to 50 μM; P2X7 receptor activation compared to control (P2X7 receptor; 50 μM): 1.36 fold change
4 | CCCCC(CC)COC(=O)c1ccccc1C(=O)OCC(CC)CCCC (stereo not drawn) [DEHP, Di(2-ethylhexyl)phtalate] | no effect | no | 50 µM | 1.16 | triggered P2X7 receptor activation | 10 | – | caspase-9 activity compared to control (caspase-9): 1.20 fold change; viability at 72 h, 50 µM [2, 5]: 25%
5 | CCCCCCCCCCCCOS(=O)(=O)[O-].[Na+] [SLS, sodium lauryl sulfate] | – | – | – | – | – | – | – | living cells (JEG-3 cells; 30 μg/mL, 24 h): 37%; living cells (JEG-3 cells; 50 μg/mL, 24 h): 10%; effect on JEG-3 cell viability (JEG-3 cells; 10% FBS, all tested concentrations (up to 50 μg/mL), 24 h, sulfate): no effect; also recorded: did not observe any cell death; concentration inducing a dramatic loss of cell viability (JEG-3 cells; diluted in 2.5% FBS): 30000 ng/mL
6 | CCCCOC(=O)c1ccccc1C(=O)OCc1ccccc1 [benzyl butyl phthalate] | no effect | no | 50 µM | 1.36 | triggered P2X7 receptor activation | 0.1 to 10 | – | caspase-9 activity compared to control (caspase-9): 1.28 fold change; viability at 72 h, 50 µM ([2]; 50 μM, 72 h, read-out: cell viability): 40%
7 | CCCCOC(=O)c1ccccc1C(=O)OCCCC [dibutyl phthalate] | no effect | no | – | 1.6 | triggered P2X7 receptor activation | 0.01 to 50 | – | cytotoxicity (concentration) (JEG-Tox cells [1]; human): 50 µM; viability at 72 h, 50 µM [2]: 55%
8 | CC/C(=C(/CC)c1ccc(O)cc1)c1ccc(O)cc1 [diethylstilbestrol] | activated caspase-1 | 7.5 µM | 15 µM | – | triggered P2X7 receptor activation | 7.5 | – | caspase-1 activity compared to control (caspase-1): 1.84 fold change; viability at 72 h, 15 µM ([2]; JEG-Tox cells, 15 μM, 72 h): 40%; P2X7 receptor activation compared to control (P2X7 receptor; 7.5 μM): 1.48 fold change
9 | CCO [ethanol] | – | – | – | – | – | – | 2.5% | –
10 | OCCOc1ccccc1 [phenoxyethanol] | – | – | – | – | – | – | 0.15% | –
11 | CCCOC(=O)c1ccc(O)cc1 [propylparaben] | activated caspase-1 | 100 µM | – | – | triggered P2X7 receptor activation | 1 to 100 | 20 µg/mL | caspase-1 activity compared to control (caspase-1): 2.7 fold change; viability at 72 h, 100 µM [2]: 87%; P2X7 receptor activation compared to control (P2X7 receptor; 100 μM): 1.69 fold change
12 | CCOP(=S)(OCC)Oc1cnc2ccccc2n1 [quinalphos] | – | – | – | – | – | – | 0.3 µg/mL | –
13 | Oc1cc(Cl)ccc1Oc1ccc(Cl)cc1Cl [triclosan] | no effect | No | 10 µM | – | triggered P2X7 receptor activation | 1 | – | viability at 72 h, 10 µM ([2]; JEG-Tox cells, 10 μM, 72 h): 60%; P2X7 receptor activation compared to control (P2X7 receptor; 1 μM): 1.13 fold change
